From the NIST ThermoML archive (doi:10.1021/acs.jced.9b00414)
Numbers after ± are expanded uncertainties. Blank lines part the entries; values can stand above or below the molecule they belong to.

Details: Liquid, Ebulliometric method (Recirculating still)

vapor or sublimation pressure (363.36 K): 101.3 ± 1.2 kPa
SMILES: COC(=O)OC [dimethyl carbonate]

vapor or sublimation pressure (428.57 K): 101.3 ± 1.2 kPa
SMILES: O=C1CCCCC1 [cyclohexanone]

vapor or sublimation pressure (351.45 K): 101.3 ± 1.2 kPa
SMILES: CCO [ethanol]

SMILES: Cc1ccccc1C [1,2-dimethylbenzene]
vapor or sublimation pressure (417.43 K): 101.3 ± 1.2 kPa

vapor or sublimation pressure (438.28 K): 101.3 ± 1.2 kPa
SMILES: CCCCOC(=O)CCC [butyl butanoate]
